Results: patent US20110086759A1, “CHEMICAL COMPOUNDS” (SYNGENTA CROP PROTECTION, INC., priority 2007, published 2011)

Experiments:
Type in all cases: in vivo
Solanum nigrum (SOLNI) [1] = test: Post-emergence biological efficacy, glasshouse pot test; settings: 312 h, Rate 1,000 g/ha, post-emergence spray, evaluated after 13 days (100=total damage to plant; 0=no damage to plant), read-out: Percentage damage caused to weed species, post-emergence, SOLNI
How it was run: (§1)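 Pot-grown weeds were sprayed 8 days after sowing with test compound in acetone/water (50:50) with 0.5% Tween 20 at 1000 or 250 g/ha. Glasshouse at 24/16° C day/night, 14 h light, 65% humidity. Damage scored 0-100 (100 = total damage) after 13 days.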

[2] = test system: Alopecurus myosuroides (ALOMY); test: as above; settings: 312 h, Rate 1,000 g/ha, post-emergence spray, evaluated after 13 days (100=total damage to plant; 0=no damage to plant), read-out: Percentage damage caused to weed species, post-emergence, ALOMY
How it was run: as §1

[3] = test system: Amaranthus retoflexus (AMARE); test: as above; settings: Amaranthus retroflexus, 312 h; Rate 1,000 g/ha; post-emergence spray; evaluated after 13 days (100=total damage to plant; 0=no damage to plant); read-out: Percentage damage caused to weed species, post-emergence, AMARE
How it was run: as §1

[4] = test system: Ipomea hederaceae (IPOHE); test: as above; settings: Ipomoea hederacea, 312 h; Rate 1,000 g/ha; post-emergence spray; evaluated after 13 days (100=total damage to plant; 0=no damage to plant); read-out: Percentage damage caused to weed species, post-emergence, IPOHE
How it was run: as §1

Setaria faberi (SETFA) [5] = test: as above; settings: 312 h, Rate 1,000 g/ha, post-emergence spray, evaluated after 13 days (100=total damage to plant; 0=no damage to plant), read-out: Percentage damage caused to weed species, post-emergence, SETFA
How it was run: as §1

[6] = test system: Echinochloa crus-galli (ECHCG); test: as above; settings: 312 h, Rate 1,000 g/ha, post-emergence spray, evaluated after 13 days (100=total damage to plant; 0=no damage to plant), read-out: Percentage damage caused to weed species, post-emergence, ECHCG
How it was run: as §1

Solanum nigrum (SOLNI) [7] = test: Pre-emergence biological efficacy, glasshouse pot test; settings: 312 h, pre-emergence, rate 1,000 g/ha, evaluated after 13 days (100=total damage to plant; 0=no damage), read-out: Percentage damage caused to weed species, SOLNI
How it was run: (§2)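 One day after sowing in standard soil, pots were sprayed with compound in acetone/water (50:50) with 0.5% Tween 20, at 1000 or 250 g/ha. Plants grew at 24/16° C day/night, 14 h light, 65% humidity. Damage was scored after 13 days (0 = none, 100 = total).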

[8] = test system: Alopecurus myosuroides (ALOMY); test: as above; settings: 312 h, pre-emergence, rate 1,000 g/ha, evaluated after 13 days (100=total damage to plant; 0=no damage), read-out: Percentage damage caused to weed species, ALOMY
How it was run: as §2

[9] = test system: Amaranthus retoflexus (AMARE); test: as above; settings: Amaranthus retroflexus, 312 h; pre-emergence, rate 1,000 g/ha, evaluated after 13 days (100=total damage to plant; 0=no damage); read-out: Percentage damage caused to weed species, AMARE
How it was run: as §2

[10] = test system: Ipomea hederaceae (IPOHE); test: as above; settings: Ipomoea hederacea, 312 h; pre-emergence, rate 1,000 g/ha, evaluated after 13 days (100=total damage to plant; 0=no damage); read-out: Percentage damage caused to weed species, IPOHE
How it was run: as §2

Setaria faberi (SETFA) [11] = test: as above; settings: 312 h, pre-emergence, rate 1,000 g/ha, evaluated after 13 days (100=total damage to plant; 0=no damage), read-out: Percentage damage caused to weed species, SETFA
How it was run: as §2

[12] = test system: Echinochloa crus-galli (ECHCG); test: as above; settings: 312 h, pre-emergence, rate 1,000 g/ha, evaluated after 13 days (100=total damage to plant; 0=no damage), read-out: Percentage damage caused to weed species, ECHCG
How it was run: as §2

SMILES	pest or weed control at 1000 g/ha (Solanum nigrum (SOLNI) [1]) [%]	pest or weed control at 1000 g/ha [2] [%]	pest or weed control at 1000 g/ha [3] [%]	pest or weed control at 1000 g/ha [4] [%]	pest or weed control at 1000 g/ha (Setaria faberi (SETFA) [5]) [%]	pest or weed control at 1000 g/ha [6] [%]	pest or weed control at 1000 g/ha (Solanum nigrum (SOLNI) [7]) [%]	pest or weed control at 1000 g/ha [8] [%]	pest or weed control at 1000 g/ha [9] [%]	pest or weed control at 1000 g/ha [10] [%]	pest or weed control at 1000 g/ha (Setaria faberi (SETFA) [11]) [%]	pest or weed control at 1000 g/ha [12] [%]
C=CCN(Cc1cccs1)c1nc(C2CC2)nc(C(=O)OC)c1Cl [Compound 151-140, 5-Chloro-2-cyclopropyl-6-methoxycarbonyl-4-(N-prop-2-en-1-yl-N-thiophen-2-ylmethyl-amino)-pyrimidine]	50	10	60	70	50	10	70	0	100	20	10	0
C=CCN(Cc1ccc(Cl)s1)c1nc(C2CC2)nc(C(=O)OC)c1Cl [Compound 151-141, 5-Chloro-4-[N-(5-chlorothiophen-2-ylmethyl)-N-prop-2-en-1-yl-amino]-2-cyclopropyl-6-methoxycarbonyl-pyrimidine]	40	10	40	70	60	10	0	10	50	40	0	0
COC(=O)c1nc(C2CC2)nc(N(CC=C(C)C)Cc2ccccc2C(F)(F)F)c1Cl [Compound 152-75, 5-Chloro-2-cyclopropyl-6-methoxycarbonyl-4-[N-(3-methylbut-2-en-1-yl)-N-(2-trifluoromethyl-phenylmethyl)-amino]pyrimidine]	60	10	50	60	10	0	20	20	80	80	40	10
C=CCCN(Cc1ccccc1)c1nc(C2CC2)nc(C(=O)OC)c1Cl [Compound 154-60, 4-(N-But-3-enyl-N-phenylmethyl-amino)-5-chloro-2-cyclopropyl-6-methoxycarbonyl-pyrimidine]	50	20	60	80	30	20	0	0	40	0	0	0
COC(=O)c1nc(C2CC2)nc(N(Cc2ccccc2)Cc2ccccc2)c1Cl [Compound 155-60, 5-Chloro-2-cyclopropyl-4-dibenzylamino-6-methoxycarbonyl-pyrimidine]	80	10	70	80	40	10	0	0	30	40	0	0
COC(=O)c1nc(C2CC2)nc(N(Cc2ccccc2)CC(O)c2ccccc2)c1Cl (stereo not drawn) [Compound 155-257, 5-Chloro-2-cyclopropyl-4-[N-(2-hydroxy-2-phenylethyl)-N-phenylmethyl-amino]-6-methoxycarbonyl-pyrimidine]	80	20	90	50	50	0	10	10	30	30	20	10
COC(=O)c1nc(C2CC2)nc(N(CCO)Cc2cccnc2)c1Cl [Compound 157-156, 5-Chloro-2-cyclopropyl-4-(N-2-hydroxyethyl-N-pyrid-3-ylmethyl--amino)-6-methoxy-carbonylpyrimidine]	40	0	40	40	0	0	20	0	40	40	0	0
COC(=O)c1nc(C2CC2)nc(N(CCO)Cc2ccc(Cl)nc2)c1Cl [Compound 157-157, 5-Chloro-4-[N-(6-chloropyrid-3-ylmethyl)-N-2-hydroxyethyl-amino]-2-cyclopropyl-6-methoxycarbonyl-pyrimidine]	30	0	50	50	0	0	100	10	100	40	30	20
COCCN(C/C=C/c1ccco1)c1nc(C2CC2)nc(C(=O)OC)c1Cl [Compound 160-256, 5-Chloro-2-cyclopropyl-4-[N-(3-furan-2-yl-prop-2-enyl)-N-2-methoxyethyl-amino]-6-methoxycarbonyl-pyrimidine]	60	0	90	50	40	0	10	10	20	10	0	0
COC(=O)c1nc(C2CC2)nc(N(CCC#N)Cc2ccccc2)c1Cl [Compound 161-60, 5-Chloro-4-[N-(2-cyanoethyl)-N-phenylmethyl-amino]-2-cyclopropyl-6-methoxycarbonyl-pyrimidine]	80	20	90	70	50	50	0	0	0	0	0	0
